The target in one experiment is human 5-HT2BR (Homo sapiens, UniProt P41595). Briefly: radioligand binding (NIMH PDSP). The protocol: (§1) All in vitro binding assay and Ki data studies were performed by the US National Institute of Mental Health Psychoactive Drug Screening Program (NIMH PDSP). For these studies, drugs were screened against recombinant, stably expressed human 5-HT2AR, 5-HT2BR, 5-HT2CR and H1, as described at https://pdspdb.unc.edu/pdspWeb/ ([Besnard et al., 2012]).

Another experiment addresses human H1 (Homo sapiens, UniProt P35367). The experiment can be described thus: radioligand binding (NIMH PDSP). The protocol:
as §1

The subject of experiment [1] is scn1lab mutant zebrafish. Briefly: locomotion (mean swim velocity) seizure-like behaviour assay in scn1lab mutant zebrafish larvae. The format is in vivo, Danio rerio. The conditions noted are these: for effect on seizure-like swim behaviour, initial library screen: 100 µM or 250 µM, UCSF-synthesized compound; for effect on seizure-like swim behaviour, retest of independently synthesized compound: 10, 50, 100 and 250 µM, 30 and 90 min exposure; for change in vivo at 100 µM / change in vivo at 250 µM: Danio rerio. The method, then: For locomotion studies, zebrafish larvae (5 days post-fertilization) were placed into a single well of a clear flat-bottomed 96-well microplate containing embryo media. Sex determination is not possible at this stage of development. All drug screening experiments were conducted in an unbiased manner by investigators blinded to the test compounds and all files coded for post hoc analysis. The 96-well plate containing larvae was then placed inside a DanioVision box where they were allowed to acclimate (20 min; room temperature). EthoVision XT software (DanioVision, Noldus Information Technology) was used to obtain locomotion plots (10 min in duration). Seizure scoring was performed, as described ([Baraban et al., 2005]). All locomotion plots were analysed for distance travelled (in millimetres) and mean velocity (in millimetres per second). After 90 min of drug exposure larvae were examined for toxic side-effects. Compounds that decreased or stopped the larva heartbeat, or reduced or eliminated the escape response when touched, were considered toxic.
For behaviour analysis, the threshold for a change in mean swim velocity ≥40% is considered significant (>1.5× SD of 250 control treated scn1lab). Unless otherwise indicated, all data in this manuscript are presented as the mean ± standard error of the mean. […] Statistically significant differences are indicated with asterisks (*P < 0.05; **P < 0.01; ***P < 0.001). […]

The subject of experiment [2] is scn1lab mutant zebrafish. Briefly: local field potential (LFP) electrophysiology, electrographic seizure events. The conditions noted are these: 100 µM; 10 min recording epoch. The format is in vivo, Danio rerio. The method, then:
Using a glass micro-electrode positioned under an upright microscope, local field potential (LFP) recordings were obtained from forebrain or optic tectum structures, as described ([Baraban et al., 2005]). Agarose-embedded LFP recording sessions (10 min in duration) were obtained using Axoclamp software (Molecular Devices; Sunnyvale, CA, USA) and sampled at 1 kHz. Epileptiform events were identified post hoc. These were classified as multi-spike or poly-spike upward or downward membrane deflections greater than 3× baseline noise level and 150–250 ms in duration (interictal-like) or greater than 5× baseline noise, multi-spike and >500 ms in duration (ictal-like); both events were counted using threshold detection settings in Clampfit (Molecular Devices; Sunnyvale, CA, USA). Agarose-embedded larvae were continuously monitored for blood flow and heart rate using an Axiocam digital camera at video frame rate.
Monitoring electrographic brain activity to confirm seizure suppression is an essential assay to eliminate false positives from behavioural testing ([Griffin et al., 2018]). By placing a micro-electrode into a visually identified brain region of an agar-immobilized zebrafish larval, stable LFP recordings can be monitored for several hours ([Baraban, 2013]). At 5 days post-fertilization, LFP recordings of scn1Lab zebrafish larvae show an average of 250 abnormal electrographic seizure events during a 10 min recording epoch.

The mark [3] stands for this setting: read-out: % change in velocity, individual larva 1 (heat map).
Setting [4] is: read-out: % change in velocity, individual larva 2 (heat map).
The mark [5] stands for this setting: read-out: % change in velocity, individual larva 3 (heat map).
The mark [6] stands for this setting: read-out: % change in velocity, individual larva 4 (heat map).
The mark [7] stands for this setting: read-out: % change in velocity, individual larva 5 (heat map).
The mark [8] stands for this setting: read-out: % change in velocity, individual larva 6 (heat map).
Where [9] appears, read: read-out: mean velocity change from six fish, Trial 1.
The mark [10] stands for this setting: read-out: mean velocity change from six fish, Trial 2.

pKi: −log10 of the molar value. Where two headings read alike, the source gives them in different places.

Sequence of human H1 (P35367 whole entry): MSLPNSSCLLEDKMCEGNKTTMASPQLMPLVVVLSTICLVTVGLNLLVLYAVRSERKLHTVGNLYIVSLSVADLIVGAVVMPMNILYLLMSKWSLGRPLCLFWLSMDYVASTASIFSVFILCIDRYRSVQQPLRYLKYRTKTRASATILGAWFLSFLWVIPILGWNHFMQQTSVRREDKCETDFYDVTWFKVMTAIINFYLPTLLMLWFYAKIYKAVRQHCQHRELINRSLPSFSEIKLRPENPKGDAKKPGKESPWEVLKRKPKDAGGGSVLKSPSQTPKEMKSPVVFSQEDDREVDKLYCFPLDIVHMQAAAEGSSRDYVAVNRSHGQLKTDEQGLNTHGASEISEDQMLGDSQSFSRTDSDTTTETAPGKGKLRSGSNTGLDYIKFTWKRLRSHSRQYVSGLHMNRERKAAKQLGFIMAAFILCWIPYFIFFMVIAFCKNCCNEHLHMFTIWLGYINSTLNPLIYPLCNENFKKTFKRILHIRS
Sequence of human 5-HT2BR (P41595 whole entry): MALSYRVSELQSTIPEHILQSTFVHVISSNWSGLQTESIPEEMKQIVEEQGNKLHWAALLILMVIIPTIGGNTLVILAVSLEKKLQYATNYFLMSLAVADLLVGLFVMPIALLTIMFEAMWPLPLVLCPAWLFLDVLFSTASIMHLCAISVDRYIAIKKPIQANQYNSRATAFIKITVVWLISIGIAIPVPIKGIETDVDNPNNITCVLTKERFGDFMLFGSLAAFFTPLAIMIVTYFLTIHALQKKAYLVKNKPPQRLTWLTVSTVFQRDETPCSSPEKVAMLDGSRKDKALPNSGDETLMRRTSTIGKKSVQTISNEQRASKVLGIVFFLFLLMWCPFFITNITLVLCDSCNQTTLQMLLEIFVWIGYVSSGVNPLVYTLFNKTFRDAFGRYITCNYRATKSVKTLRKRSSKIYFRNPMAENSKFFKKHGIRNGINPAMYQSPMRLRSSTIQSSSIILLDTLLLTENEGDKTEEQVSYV

`c1ccc2c(c1)nc(CN1CCCC1)n2CC1CCCC1` [Compound 20]: the results for the negative logarithm of the Ki (pKi) on human 5-HT2BR (read-out: Ki 5-HT2BR) and at human H1 (read-out: Ki H1) were 6.11 and 6.79, respectively. Moreover, in the experiment with scn1lab mutant zebrafish [1], the “effect on seizure-like swim behaviour, initial library screen” value (shortened to “effect … initial library screen”) was “effective in suppressing”. For the same molecule, in the experiment with scn1lab mutant zebrafish [1], the “effect on seizure-like swim behaviour, retest of independently synthesized compound” value (“effect … of independently synthesized compound” for short) is “reduced the high-velocity seizure-like swim behaviour”. Moreover, the change in vivo at 100 µM with scn1lab mutant zebrafish [1] (setting [3]) was 17.3%; in the experiment with scn1lab mutant zebrafish [1] (setting [4]), -4.1%; in the experiment on scn1lab mutant zebrafish [1] (setting [5]) it was -27.1%; in the experiment on scn1lab mutant zebrafish [1] (setting [6]), -14.1%; in the experiment with scn1lab mutant zebrafish [1] (setting [7]) it was -25.2%; in the experiment with scn1lab mutant zebrafish [1] (setting [8]) it was -48.1%. Further, the change in vivo at 100 µM in the experiment on scn1lab mutant zebrafish [1] (setting [9]) and in the experiment on scn1lab mutant zebrafish [1] (setting [10]) was -15.6% in each case. Further, the change in vivo at 250 µM was -62.7% in the experiment on scn1lab mutant zebrafish [1] (setting [3]); -80.4% in the experiment with scn1lab mutant zebrafish [1] (setting [4]); -65.9% with scn1lab mutant zebrafish [1] (setting [5]); -100% with scn1lab mutant zebrafish [1] (setting [6]); -60.9% in the experiment with scn1lab mutant zebrafish [1] (setting [7]); -9.7% with scn1lab mutant zebrafish [1] (setting [8]). Also, the change in vivo at 250 µM in the experiment on scn1lab mutant zebrafish [1] (setting [9]) and in the experiment on scn1lab mutant zebrafish [1] (setting [10]) was -66.1% throughout. Moreover, in the experiment on scn1lab mutant zebrafish [2], the “effect on electrographic seizure activity (LFP)” value (“effect … (LFP)” for short) is given as “significant suppression of electrographic seizure activity”.
In the case of `FC(F)(F)c1ccc(Cn2c(CN3CCCC3)nc3ccccc32)cc1` [Compound 6], the pKi (usually the negative decadic logarithm of the Ki, by convention in mol/L) at human 5-HT2BR (read-out: Ki 5-HT2BR) was 6.55; on human H1 (read-out: Ki H1), 7.80. In the experiment with scn1lab mutant zebrafish [1], the “effect … initial library screen” value is “effective in suppressing”. For the same molecule, the “effect … of independently synthesized compound” value in the experiment with scn1lab mutant zebrafish [1] was “reduced the high-velocity seizure-like swim behaviour”. Moreover, the change in vivo at 100 µM was -34.5% in the experiment with scn1lab mutant zebrafish [1] (setting [3]); 38.1% in the experiment with scn1lab mutant zebrafish [1] (setting [4]); -51.3% with scn1lab mutant zebrafish [1] (setting [5]); 10% in the experiment on scn1lab mutant zebrafish [1] (setting [6]); -75.4% in the experiment on scn1lab mutant zebrafish [1] (setting [7]); -79.2% in the experiment on scn1lab mutant zebrafish [1] (setting [8]). Moreover, the values for the change in vivo at 100 µM in the experiment with scn1lab mutant zebrafish [1] (setting [9]) and in the experiment with scn1lab mutant zebrafish [1] (setting [10]) were -40% and -76.2%, respectively. In addition, the change in vivo at 250 µM in the experiment with scn1lab mutant zebrafish [1] (setting [3]) was -100%; in the experiment with scn1lab mutant zebrafish [1] (setting [4]) it was -91.9%; with scn1lab mutant zebrafish [1] (setting [5]), -100%; with scn1lab mutant zebrafish [1] (setting [6]) it was -100%; in the experiment on scn1lab mutant zebrafish [1] (setting [7]) it was -79.3%; in the experiment with scn1lab mutant zebrafish [1] (setting [8]), -92.7%. For the same molecule, the change in vivo at 250 µM was -94.7% in the experiment with scn1lab mutant zebrafish [1] (setting [9]) and -90.5% in the experiment with scn1lab mutant zebrafish [1] (setting [10]). Further, the “effect … (LFP)” value with scn1lab mutant zebrafish [2] is “significant suppression of electrographic seizure activity”.
On to `c1ccc2c(c1)nc(CN1CCCC1)n2CC1CCCCC1` [Compound 4], for which the pKi at human 5-HT2BR was 6.21; at human H1, 6.82. In the experiment with scn1lab mutant zebrafish [1], the “effect … initial library screen” value is “effective in suppressing”. The “effect … of independently synthesized compound” value in the experiment with scn1lab mutant zebrafish [1] is reported as “reduced the high-velocity seizure-like swim behaviour”. For the same molecule, the change in vivo at 100 µM is -85.7% with scn1lab mutant zebrafish [1] (setting [3]); -30.6% with scn1lab mutant zebrafish [1] (setting [4]); -85.6% with scn1lab mutant zebrafish [1] (setting [5]); -68.3% in the experiment with scn1lab mutant zebrafish [1] (setting [6]); -79.4% in the experiment with scn1lab mutant zebrafish [1] (setting [7]); 146% with scn1lab mutant zebrafish [1] (setting [8]). Besides, the change in vivo at 100 µM with scn1lab mutant zebrafish [1] (setting [9]) was -41.7%; with scn1lab mutant zebrafish [1] (setting [10]), -44.8%. Also, the change in vivo at 250 µM in the experiment on scn1lab mutant zebrafish [1] (setting [3]) was -93.5%; in the experiment on scn1lab mutant zebrafish [1] (setting [4]), -100%; in the experiment on scn1lab mutant zebrafish [1] (setting [5]), -100%; with scn1lab mutant zebrafish [1] (setting [6]), -67.4%; with scn1lab mutant zebrafish [1] (setting [7]), -83.7%; in the experiment with scn1lab mutant zebrafish [1] (setting [8]), -100%. The change in vivo at 250 µM in the experiment with scn1lab mutant zebrafish [1] (setting [9]) is -93.4%; in the experiment on scn1lab mutant zebrafish [1] (setting [10]) it was -100%. Moreover, in the experiment with scn1lab mutant zebrafish [2], the “effect … (LFP)” value is “significant suppression of electrographic seizure activity”.
